# According to PMC8185074, “Anchor extension: a structure-guided approach to design cyclic peptides targeting enzyme active sites” (Nature Communications, 2021):
# Peptide text beside a SMILES is read from it.
# Legend:
# Assay type in all cases: biochemical
# [1] = target: T1, HDAC2 (Homo sapiens, UniProt Q92769); assay: HDAC2 inhibition, full IC50 measurement (Reaction Biology; fluorogenic p53 peptide RHKK(Ac)AMC)
# T1 construct: purchased Reaction Biology Corporation (assay run by the CRO)
# Summary of the method: (§1)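 Deacetylation of 50 μM RHKK(Ac)AMC is measured after 1 h at 30 °C in pH 8.0 Tris buffer (1% DMSO, 1 mg/ml BSA). Developer ends the reaction; the post-plateau 360/460 nm signal is fitted to IC50, averaging replicate measurements.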
# [2] = target: T2, HDAC1 (Homo sapiens, UniProt Q13547); assay: HDAC1 inhibition, full IC50 measurement (Reaction Biology; fluorogenic p53 peptide RHKK(Ac)AMC); conditions: t1/t2 replicates
# T2 construct: purchased Reaction Biology Corporation (assay run by the CRO)
# T2 sequence (Q13547 whole entry): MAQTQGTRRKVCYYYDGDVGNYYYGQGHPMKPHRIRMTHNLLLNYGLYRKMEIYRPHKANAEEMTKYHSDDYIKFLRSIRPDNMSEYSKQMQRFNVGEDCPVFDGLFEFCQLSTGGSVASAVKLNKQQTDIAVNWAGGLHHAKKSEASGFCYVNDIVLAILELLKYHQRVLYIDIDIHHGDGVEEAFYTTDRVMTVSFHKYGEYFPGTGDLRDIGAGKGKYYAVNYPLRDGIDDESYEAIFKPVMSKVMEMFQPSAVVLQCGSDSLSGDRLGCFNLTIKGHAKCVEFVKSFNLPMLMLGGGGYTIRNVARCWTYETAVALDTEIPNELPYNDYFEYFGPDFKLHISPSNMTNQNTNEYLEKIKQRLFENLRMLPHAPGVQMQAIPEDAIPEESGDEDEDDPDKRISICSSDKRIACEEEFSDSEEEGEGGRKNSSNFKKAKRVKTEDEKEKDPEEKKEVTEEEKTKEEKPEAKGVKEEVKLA
# Summary of the method: as §1
# [3] = target: T3, HDAC8 (Homo sapiens, UniProt Q9BY41); assay: HDAC8 inhibition, full IC50 measurement (Reaction Biology; fluorogenic p53 peptide RHKK(Ac)AMC); conditions: t1/t2 replicates
# T3 construct: purchased Reaction Biology Corporation (assay run by the CRO)
# T3 sequence (Q9BY41 1-377): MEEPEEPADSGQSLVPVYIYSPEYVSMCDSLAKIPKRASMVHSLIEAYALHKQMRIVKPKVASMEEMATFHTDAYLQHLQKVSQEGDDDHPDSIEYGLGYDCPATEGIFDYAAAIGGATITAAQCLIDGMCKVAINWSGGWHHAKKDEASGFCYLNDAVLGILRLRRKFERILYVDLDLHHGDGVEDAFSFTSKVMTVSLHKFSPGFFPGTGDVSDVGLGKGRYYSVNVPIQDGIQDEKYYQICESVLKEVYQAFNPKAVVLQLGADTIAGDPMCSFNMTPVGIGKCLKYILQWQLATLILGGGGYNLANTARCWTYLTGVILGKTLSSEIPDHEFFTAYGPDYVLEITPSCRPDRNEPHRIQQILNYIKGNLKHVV
# Summary of the method: as §1
# [4] = peptide conc. 1.00E-05 M, listed as des4.1.0_t1
# [5] = peptide conc. 1.00E-05 M, listed as des4.1.0_t2
# [6] = peptide conc. 1.11E-06 M, listed as des4.1.0_t1
# [7] = peptide conc. 1.11E-06 M, listed as des4.1.0_t2
# [8] = peptide conc. 1.23E-07 M, listed as des4.1.0_t1
# [9] = peptide conc. 1.23E-07 M, listed as des4.1.0_t2
# [10] = peptide conc. 1.37E-08 M, listed as des4.1.0_t1
# [11] = peptide conc. 1.37E-08 M, listed as des4.1.0_t2
# [12] = peptide conc. 1.52E-09 M, listed as des4.1.0_t1
# [13] = peptide conc. 1.52E-09 M, listed as des4.1.0_t2
# [14] = peptide conc. 3.33E-06 M, listed as des4.1.0_t1
# [15] = peptide conc. 3.33E-06 M, listed as des4.1.0_t2
# [16] = peptide conc. 3.70E-07 M, listed as des4.1.0_t1
# [17] = peptide conc. 3.70E-07 M, listed as des4.1.0_t2
# [18] = peptide conc. 4.12E-08 M, listed as des4.1.0_t1
# [19] = peptide conc. 4.12E-08 M, listed as des4.1.0_t2
# [20] = peptide conc. 4.57E-09 M, listed as des4.1.0_t1
# [21] = peptide conc. 4.57E-09 M, listed as des4.1.0_t2
# [22] = peptide conc. 5.08E-10 M, listed as des4.1.0_t1
# [23] = peptide conc. 5.08E-10 M, listed as des4.1.0_t2
# T1 sequence (Q92769 whole entry): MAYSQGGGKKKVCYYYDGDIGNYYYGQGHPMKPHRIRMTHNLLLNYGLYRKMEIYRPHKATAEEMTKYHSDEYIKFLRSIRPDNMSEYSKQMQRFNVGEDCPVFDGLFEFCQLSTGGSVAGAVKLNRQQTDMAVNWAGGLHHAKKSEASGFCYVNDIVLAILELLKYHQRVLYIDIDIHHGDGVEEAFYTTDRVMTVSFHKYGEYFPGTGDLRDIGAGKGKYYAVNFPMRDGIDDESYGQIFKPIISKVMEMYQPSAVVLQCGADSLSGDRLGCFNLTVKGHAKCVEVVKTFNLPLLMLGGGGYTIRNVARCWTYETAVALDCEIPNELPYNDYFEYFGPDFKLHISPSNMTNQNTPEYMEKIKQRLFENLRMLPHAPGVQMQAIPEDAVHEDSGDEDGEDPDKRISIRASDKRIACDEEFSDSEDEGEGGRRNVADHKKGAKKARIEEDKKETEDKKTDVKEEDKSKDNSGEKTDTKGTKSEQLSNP
structure (smiles),measurement,setting,value
"N=C(N)NCCC[C@@H]1NC(=O)[C@H](Cc2c[nH]c3ccccc23)NC(=O)[C@H](CC(=O)O)NC(=O)[C@@H](CO)NC(=O)[C@H](Cc2c[nH]c3ccccc23)NC(=O)[C@H](CCCCCS)NC(=O)[C@H](CCC(N)=O)NC1=O [des4.1.0, SHA-Trp-dSer-Asp-Trp-Arg-Gln] (HELM PEPTIDE1{D.W.R.Q.[O=C([C@H](CCCCCS)N[*:1])[*:2]].W.[dS]}$PEPTIDE1,PEPTIDE1,1:R1-7:R2$$$V2.0)",HDAC2 activity raw data (signal),"[1]; Conc. 1.00E-05 M, t1",-10519
same,HDAC2 activity raw data (signal),"[1]; Conc. 1.00E-05 M, t2",-26565
same,HDAC2 activity raw data (signal),"[1]; Conc. 1.11E-06 M, t1",79842
same,HDAC2 activity raw data (signal),"[1]; Conc. 1.11E-06 M, t2",48499
same,HDAC2 activity raw data (signal),"[1]; Conc. 1.23E-07 M, t1",872533
same,HDAC2 activity raw data (signal),"[1]; Conc. 1.23E-07 M, t2",734242
same,HDAC2 activity raw data (signal),"[1]; Conc. 1.37E-08 M, t1",1715554
same,HDAC2 activity raw data (signal),"[1]; Conc. 1.37E-08 M, t2",1674658
same,HDAC2 activity raw data (signal),"[1]; Conc. 1.52E-09 M, t1",1955635
same,HDAC2 activity raw data (signal),"[1]; Conc. 1.52E-09 M, t2",1838943
same,HDAC2 activity raw data (signal),"[1]; Conc. 3.33E-06 M, t1",20013
same,HDAC2 activity raw data (signal),"[1]; Conc. 3.33E-06 M, t2",16353
same,HDAC2 activity raw data (signal),"[1]; Conc. 3.70E-07 M, t1",220224
same,HDAC2 activity raw data (signal),"[1]; Conc. 3.70E-07 M, t2",182542
same,HDAC2 activity raw data (signal),"[1]; Conc. 4.12E-08 M, t1",1421192
same,HDAC2 activity raw data (signal),"[1]; Conc. 4.12E-08 M, t2",1355422
same,HDAC2 activity raw data (signal),"[1]; Conc. 4.57E-09 M, t1",1969255
same,HDAC2 activity raw data (signal),"[1]; Conc. 4.57E-09 M, t2",1793366
same,HDAC2 activity raw data (signal),"[1]; Conc. 5.08E-10 M, t1",1865278
same,HDAC2 activity raw data (signal),"[1]; Conc. 5.08E-10 M, t2",1807628
same,HDAC1 activity raw data (signal),[2]; [4],765
same,HDAC1 activity raw data (signal),[2]; [5],43
same,HDAC1 activity raw data (signal),[2]; [6],72647
same,HDAC1 activity raw data (signal),[2]; [7],40074
same,HDAC1 activity raw data (signal),[2]; [8],531723
same,HDAC1 activity raw data (signal),[2]; [9],406309
same,HDAC1 activity raw data (signal),[2]; [10],925044
same,HDAC1 activity raw data (signal),[2]; [11],865901
same,HDAC1 activity raw data (signal),[2]; [12],1099796
same,HDAC1 activity raw data (signal),[2]; [13],1072226
same,HDAC1 activity raw data (signal),[2]; [14],17702
same,HDAC1 activity raw data (signal),[2]; [15],11850
same,HDAC1 activity raw data (signal),[2]; [16],193534
same,HDAC1 activity raw data (signal),[2]; [17],155666
same,HDAC1 activity raw data (signal),[2]; [18],733473
same,HDAC1 activity raw data (signal),[2]; [19],658176
same,HDAC1 activity raw data (signal),[2]; [20],1015864
same,HDAC1 activity raw data (signal),[2]; [21],988230
same,HDAC1 activity raw data (signal),[2]; [22],1225387
same,HDAC1 activity raw data (signal),[2]; [23],1041994
same,HDAC8 activity raw data (signal),[3]; [4],100967
same,HDAC8 activity raw data (signal),[3]; [5],38752
same,HDAC8 activity raw data (signal),[3]; [6],234716
same,HDAC8 activity raw data (signal),[3]; [7],226734
same,HDAC8 activity raw data (signal),[3]; [8],803512
same,HDAC8 activity raw data (signal),[3]; [9],713240
same,HDAC8 activity raw data (signal),[3]; [10],943537
same,HDAC8 activity raw data (signal),[3]; [11],964221
same,HDAC8 activity raw data (signal),[3]; [12],948817
same,HDAC8 activity raw data (signal),[3]; [13],953073
same,HDAC8 activity raw data (signal),[3]; [14],100659
same,HDAC8 activity raw data (signal),[3]; [15],171679
same,HDAC8 activity raw data (signal),[3]; [16],597298
same,HDAC8 activity raw data (signal),[3]; [17],553055
same,HDAC8 activity raw data (signal),[3]; [18],940975
same,HDAC8 activity raw data (signal),[3]; [19],825924
same,HDAC8 activity raw data (signal),[3]; [20],958670
same,HDAC8 activity raw data (signal),[3]; [21],869070
same,HDAC8 activity raw data (signal),[3]; [22],1026116
same,HDAC8 activity raw data (signal),[3]; [23],927553
